Assay [1] addresses T1, RmHR (Rubricoccus marinus halorhodopsin) (Rubricoccus marinus, UniProt A0A259U296). The assay is described as follows: biochemical. Also on record: gene BSZ36_14690.
Assay [2] concerns the target T1, RmHR (Rubricoccus marinus halorhodopsin). The assay is described as follows: normal-phase HPLC of extracted retinal oxime. It is filed as binding. The arrangement: gene BSZ36_14690; full-length codon-optimised synthetic gene in pET21a, C-terminal His6; expressed in E. coli, DDM-solubilised, purified. To be noted: covalent (Schiff base); 1 M NaCl, 25°C, dark or illuminated at 540 nm; retinal supplied during expression.

Structures are written as SMILES.

T1 sequence (A0A259U296 entry or part of it): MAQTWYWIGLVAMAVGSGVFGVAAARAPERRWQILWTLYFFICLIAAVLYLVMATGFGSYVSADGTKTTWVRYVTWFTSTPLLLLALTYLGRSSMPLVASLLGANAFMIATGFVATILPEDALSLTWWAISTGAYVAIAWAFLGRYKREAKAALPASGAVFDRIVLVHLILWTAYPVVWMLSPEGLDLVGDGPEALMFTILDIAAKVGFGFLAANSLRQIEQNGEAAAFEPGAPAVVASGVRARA

In assay [1], `Cl` [Cl^−] gave a Kd of 7.6 ± 1.7 mM.

Take `CC1=C(/C=C/C(C)=C/C=C/C(C)=C/C=O)C(C)(C)CCC1` [all-trans-retinal]: the “normal-phase HPLC of extracted retinal oxime” value in assay [2] is given as “RmHR predominantly possesses all-trans retinal as a chromophore”.

(Values after paper PMC5877348, “Presence of a Haloarchaeal Halorhodopsin-Like Cl^− Pump in Marine Bacteria” (Microbes and Environments, 2018).)
